Structures are written as SMILES.

Data set [1] concerns the target T1, amyloid (aggregated Aβ1-40) (Homo sapiens, UniProt P05067).
T1 construct: Aβ1-40 (Peptide Institute, INC.) was dissolved in phosphate buffer (pH 7.4); purchased Peptide Institute, INC
Kind of data set: Measurement of binding to amyloid (radiolabelled compound, glass fiber filtration). Particulars: amyloid 2.5-1000 nmol/L, 22° C., 3 hours. The method, then: (7) A relation between the amount of the Compound I-6 binding to amyloid and the amount of added amyloid was evaluated from the measurement results of (6). Unspecific binding was determined using a sample to which the Compound I-2 (non-RI labeled compound) was added to become 100 nM (at a final concentration) above in (4) (Example I-7).
(8) Using [^125I]-IMPY synthesized in the above Reference Example I-6, the same procedure as the above (2) to (6) were carried out to obtain control data (Comparative Example I-1).
A relation between the concentration of amyloid in the sample solution and the radioactive count on the glass fiber filter measured above in (6) is shown in FIG. 1-11. The radioactivity on the glass fiber was increased proportionally to the concentration (addition amount) of amyloid (Example I-7). […] Therefore, the radioactive count on the glass fiber is a value reflecting the amount of the compound attached to amyloid, and the slope of the graph which plotted the radioactive count relative to the concentration of amyloid is a value which can be an index representing the intensity of binding to amyloid.

Data set [2] is described as follows: Transferability into brain and clearance, Examples I-20 to I-21. It is filed as in vivo, male Wistar rats. To be noted: rats, intravenous injection, Table 1-7. An excerpt: Three animals were used for Experiment I-20 and Comparative Experiment I-9, and two animals were used for Experiment I-21 at the respective time points.
The target of data set [3] is T2, intracerebral amyloid (aggregated Aβ1-40 injected into amygdaloid nucleus) (Homo sapiens, UniProt P05067).
T2 construct: Aβ1-40 (Peptide Institute, INC.) was dissolved in phosphate buffer (pH 7.4); purchased Peptide Institute, INC
Kind of data set: Confirmation of imaging of amyloid in brain (ex vivo autoradiogram), Example I-22. Also on record: species or system male Wistar rat. To be noted: brain slice 60 minutes after tail vein injection.
Description: (§1) (1) Aβ1-40 (manufactured by Peptide Institute, INC.) was dissolved in phosphate buffer (pH 7.4) and shaken at 37° C. for 72 hours, to obtain 1 mg/mL of a suspension of aggregated Aβ (hereinafter referred to as amyloid suspension in this Example).
(§2) (2) 25 μL (corresponding to 25 μg) of the amyloid suspension was injected into an amygdaloid nucleus on one side of a male Wistar rat (7-week old). As a control, 25 μL of a phosphate buffered physiological saline solution (pH 7.4) was injected into an amygdaloid nucleus on the other side of the rat. The rats were examined 1 day after the injection of the amyloid suspension and the phosphate buffered physiological saline solution (pH 7.4).
(§3) This solution was injected into the rat through the tail vein (dosage: 0.5 mL, dosed radioactivity: 16 MBq equivalent).
(§4) (4) Brain was removed 60 minutes after the injection to prepare a brain slice of 10 μm in thickness with a microtome (type: CM3050S, manufactured by LEICA). The brain slice was exposed to an imaging plate for 20 hours, and then image analysis was carried out by use of a Bio-imaging Analyzer (type: BAS-2500; manufactured by FUJIFILM Corporation).

Data set [4] has as its system intracerebral amyloid (aggregated Aβ1-40 injected into amygdaloid nucleus). The data set is described as above. Particulars: brain slice 60 minutes after tail vein injection. Also on record: species or system male Wistar rat.
Description: as §1, §2, §3, §4
Data set [5] can be described thus: Transferability into brain and clearance (2), Example I-30. It is filed as in vivo, male Wistar rats. To be noted: rats, intravenous injection, Table 1-10.
Description: 0.05 mL each of these solutions was injected under thiopental anesthesia into the tail vein of respective Wistar rats (7-week old). The rats were sacrificed by bleeding from abdominal artery, and brains were removed and subjected to measurement of mass of brains and further subjected to measurement of radioactivity (hereinafter referred to as A in this Example) with a single channel analyzer (detector type: SP-20 manufactured by OHYO KOKEN KOGYO Co., Ltd.) 2, 5, 30 and 60 minutes after the injection. Also, radioactivity (hereinafter referred to as B in this Example) of the rest of the whole body was measured in the same manner as above. Using these measurement results, radioactive distribution per unit weight of brain (% ID/g) at the respective time points were calculated in accordance with the following formula (1-7).
Three animals were used for experiment at the respective time points.
The target in data set [6] is T3, intracerebral amyloid (aggregated Aβ1-42 injected into amygdaloid nucleus) (Homo sapiens, UniProt P05067).
T3 construct: Aβ1-42 (Wako) was dissolved in phosphate buffer (pH 7.4); purchased Wako
In words: Confirmation of imaging of amyloid in brain (ex vivo autoradiogram), Example I-31. Also on record: species or system male Wistar rat. To be noted: brain slice 60 minutes after tail vein injection.
Description: (§5) (1) Aβ1-42 (Wako) was dissolved in phosphate buffer (pH 7.4) and shaken at 37° C. for 72 hours, to obtain a 1 mg/mL suspension of aggregated Aβ (hereinafter referred to as amyloid suspension in this Example).
(§6) (2) 2.5 μL (corresponding to 25 μg) of the amyloid suspension was injected into an amygdaloid nucleus on one side of a male Wistar rat (7-week old). As a control, 2.5 μL of a phosphate buffered physiological saline solution (pH 7.4) was injected into an amygdaloid nucleus on the other side of the rat. The rats were examined 1 day after the injection of the amyloid suspension and the phosphate buffered physiological saline solution (pH 7.4).
(§7) This solution was injected under thiopental anesthesia into the rat through the tail vein (dosage: 0.5 mL, dosed radioactivity: 11-15 MBq equivalent).
as §4

The test system of data set [7] is intracerebral amyloid (aggregated Aβ1-42 injected into amygdaloid nucleus). The description is as above. The arrangement: species or system male Wistar rat.
Description: as §5, §6, §7, §4
Data set [8] can be described thus: Partition coefficient based on the octanol extraction method, Examples II-20 to II-21. It is filed as physicochemical. To be noted: octanol / 10 mmol/L phosphate buffer (pH 7.4); Table 2-6.
Description: To 2 mL of octanol, 10 μL each of the prepared sample solution was added, and 2 mL of 10 mmol/L phosphate buffer (pH 7.4) was further added, followed by stirring for 30 seconds. After the mixture was centrifuged with a low-speed centrifuge (2000 rpm×60 min.), the octanol layer and the water layer were sampled each in an amount of 1 mL, and subjected to measurement of radioactivity count with an autowell gamma system (Type: ARC-301B, manufactured by Aloka). Using the obtained radioactivity count, log Poctanol was calculated in accordance with the equation (2-4).
Data set [9] is described as follows: Transferability into brain and clearance, Examples II-22 to II-23. It is filed as in vivo, male Wistar rats. Particulars: rats, intravenous injection, Table 2-7.
Description: 0.05 mL each of the prepared sample solutions was injected under thiopental anesthesia into the tail vein of the respective Wistar rat (7-week old). The rats were sacrificed by bleeding from abdominal artery, and brains were removed and subjected to measurement of mass of brains and further subjected to measurement of radioactivity (hereinafter referred to as A in this Example) with a single channel analyzer (detector type SP-20 manufactured by OHYO KOKEN KOGYO Co., Ltd.) 2, 5, 30, and 60 minutes after the injection. Further, the radioactivity level of the rest of the whole body was measured in the same manner as above (hereinafter referred to as B in this Example). Using these measurement results, radioactive distribution per unit weight of brain (% ID/g) at the respective time points were calculated in accordance with the following formula (2-5).
Three animals were used for the experiment at the respective time points.
The target of data set [10] is T3, intracerebral amyloid (aggregated Aβ1-42 injected into amygdaloid nucleus). Kind of data set: Confirmation of imaging of amyloid in brain (ex vivo autoradiogram), Examples II-24 to II-25. Also on record: species or system male Wistar rat. To be noted: brain slice 60 minutes after tail vein injection.
Description: as §6, §7, §4
Data set [11] has as its system intracerebral amyloid (aggregated Aβ1-42 injected into amygdaloid nucleus). The data set is described as above. To be noted: for accumulation of radioactivity at sites other than the site to which amyloid was injected: autoradiogram, 60 minutes after tail vein injection; for accumulation of radioactivity in amygdaloid nucleus on the side to which the physiological saline solution was injected: brain slice 60 minutes after tail vein injection. Also on record: species or system male Wistar rat.
Description: as §6, §7, §4

Data set [12] in a line: Partition coefficient based on HPLC. It is filed as physicochemical. Particulars: 50 mM triethylamine phosphate (pH 7.2)/acetonitrile=40/60; log PHPLC=0.96(log10K′HPLC)+1.59. As to the method:
The partition coefficient by HPLC (hereinafter referred to as log PHPLC) was measured by the following method.
First, compounds for evaluation shown in Table 1-5 were dissolved at a concentration of 1 mg/mL in methanol containing 10% dimethylsulfoxide to prepare sample solutions. One μL of the sample solution was subjected to HPLC analysis under the following conditions to determine the elution time (t0) of the solvent and the elution time (tR) of each compound. […]
Using the obtained t0 and tR, the retention factor (hereinafter referred to as K′HPLC value) of each compound for evaluation was determined according to the following calculation formula (1-3). […]
After the individual solutions were stirred for 30 seconds, the solutions were centrifuged at 2,000 rpm for 60 minutes. 1 mL each of the octanol phase and the water phase was fractionated, and the radioactivity was measured by an autowell gamma system (manufactured by Aloka Co., Ltd.: Type ARC-301B). Based on the obtained radioactivity, log Poctanol values were calculated according to the above equation (1-2). […]
Using K′HPLC obtained for each compound for evaluation, the log PHPLC value of each compound for evaluation was determined according to the above calculation formula (1-4).

The conditions of data set [13]: International Publication WO03/106439 pamphlet; cited from earlier work.
The conditions of data set [14]: rats, [11C]-labeled; cited from earlier work.

T3 sequence (P05067 672-713): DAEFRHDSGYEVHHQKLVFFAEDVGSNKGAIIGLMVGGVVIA
T2 sequence (P05067 672-711): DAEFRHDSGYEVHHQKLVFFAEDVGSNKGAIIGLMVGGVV
T1 sequence (P05067 672-711 limits assumed): as the sequence (P05067 672-711) above

Turning to `FCCCOc1ccc(-c2cn3cc([125I])ccc3n2)cc1` [Compound I-6, 2-[4′-(3″-fluoropropoxy)phenyl]-6-[^125I]iodoimidazo[1,2-a]pyridine], the “slope of radioactive count on the glass fiber relative to the concentration of amyloid (index of intensity of binding to amyloid)” value in data set [1] is “greater than the slope for [^125I]-IMPY”.

On to `FCCCOc1ccc(-c2cn3cc([123I])ccc3n2)cc1` [Compound I-7, 2-[4′-(3″-fluoropropoxy)phenyl]-6-[^123I]iodoimidazo[1,2-a]pyridine], for which, in data set [2] (2 min.), the “Radioactive distribution in brain per unit weight, After 2 min.” value came to 1.10 % ID/g. Moreover, the “Radioactive distribution in brain per unit weight, After 5 min.” value in data set [2] (5 min.) was 0.75 % ID/g. Moreover, in data set [2] (30 min.), the “Radioactive distribution in brain per unit weight, After 30 min.” value stood at 0.12 % ID/g. The “Radioactive distribution in brain per unit weight, After 60 min.” value in data set [2] (60 min.) came to 0.05 % ID/g. Besides, the “accumulation of radioactivity in amygdaloid nucleus on the side to which the amyloid suspension was injected” value in data set [3] is “marked accumulation of radioactivity”. Also, in [4], the “accumulation of radioactivity in amygdaloid nucleus on the side to which the physiological saline solution was injected” value is “no significant accumulation of radioactivity”.

For `FCCOc1ccc(-c2cn3cc([123I])ccc3n2)cc1` [Compound I-9, 2-[4′-(2″-fluoroethoxy)phenyl]-6-[^123I]iodoimidazo[1,2-a]pyridine], in data set [5] (2 min.), the “Radioactive distribution in brain per unit weight, After 2 min.” value is 0.72 % ID/g. For the same molecule, the “Radioactive distribution in brain per unit weight, After 5 min.” value in data set [5] (5 min.) is given as 0.49 % ID/g. The “Radioactive distribution in brain per unit weight, After 30 min.” value in [5] (30 min.) stood at 0.07 % ID/g. For the same molecule, the “Radioactive distribution in brain per unit weight, After 60 min.” value in [5] (60 min.) is recorded as 0.02 % ID/g. Moreover, the “accumulation of radioactivity in amygdaloid nucleus on the side to which the amyloid suspension was injected” value in data set [6] was “marked accumulation of radioactivity”. Moreover, in data set [7] (autoradiogram, 60 minutes after tail vein injection), the “accumulation of radioactivity at sites other than the sites to which amyloid was injected” value is given as “little accumulation of radioactivity”. For the same molecule, in data set [7] (brain slice 60 minutes after tail vein injection), the “accumulation of radioactivity in amygdaloid nucleus on the side to which the physiological saline solution was injected” value is reported as “no significant accumulation of radioactivity”.

With `OCCOc1cccc(-c2cn3cc([123I])ccc3n2)c1` [Compound II-4, 2-[3′-(2″-hydroxyethoxy)phenyl]-6-[^123I]iodoimidazo[1,2-a]pyridine], the logPoctanol value in [8] is on record as 2.5. In [9], the “Radioactive distribution in brain per unit weight, After 2 min.” value worked out at 0.56 % ID/g; the “Radioactive distribution in brain per unit weight, After 5 min.” value turned out to be 0.28 % ID/g; the “Radioactive distribution in brain per unit weight, After 30 min.” value is 0.04 % ID/g; the “Radioactive distribution in brain per unit weight, After 60 min.” value worked out at 0.01 % ID/g. Further, in data set [10], the “accumulation of radioactivity in amygdaloid nucleus on the side to which the amyloid suspension was injected” value was “marked accumulation of radioactivity”. Further, in data set [11], the “accumulation of radioactivity at sites other than the site to which amyloid was injected” value is on record as “little accumulation of radioactivity” and the “accumulation of radioactivity in amygdaloid nucleus on the side to which the physiological saline solution was injected” value is “no significant accumulation of radioactivity”.

Regarding `OCCCOc1ccc(-c2cn3cc([123I])ccc3n2)cc1` [Compound II-6, 2-[4′-(3″-hydroxypropoxy)phenyl]-6-[^123I]iodoimidazo[1,2-a]pyridine], the logPoctanol value in data set [8] was 2.1. In data set [9], the “Radioactive distribution in brain per unit weight, After 2 min.” value amounted to 0.81 % ID/g; the “Radioactive distribution in brain per unit weight, After 5 min.” value was 0.56 % ID/g; the “Radioactive distribution in brain per unit weight, After 30 min.” value was found to be 0.07 % ID/g; the “Radioactive distribution in brain per unit weight, After 60 min.” value stood at 0.02 % ID/g. Moreover, the “accumulation of radioactivity in amygdaloid nucleus on the side to which the amyloid suspension was injected” value in data set [10] is listed as “marked accumulation of radioactivity”. In data set [11], the “accumulation of radioactivity at sites other than the site to which amyloid was injected” value is on record as “little accumulation of radioactivity” and the “accumulation of radioactivity in amygdaloid nucleus on the side to which the physiological saline solution was injected” value is on record as “no significant accumulation of radioactivity”.

For the molecule `CN(C)c1ccc(-c2cn3cc(I)ccc3n2)cc1` [IMPY, 6-iodo-2-[4′-(N,N-dimethylamino)phenyl]imidazo[1,2-a]pyridine], in data set [12], the logPHPLC value was found to be 2.1. Besides, in data set [13], the “reverse mutation test result” value was “positive”.

With `CNc1ccc(/C=C/c2ccc(O)cc2)cc1` [SB-13, (E)-4-methylamino-4′-hydroxystilbene], the “clearance from normal tissues” value in data set [14] was “it cannot be said that the clearance is sufficiently fast”.
